Assays:
eosinophil = test: Eosinophilia-Inhibitory Activity (Sephadex G-200 induced, bronchovesicular washing); format: in vivo; settings: Rattus norvegicus, ip, 168 h, rats, 30 mg/kg intraperitoneally 10 minutes prior to each Sephadex administration (day 0, 2, 5), eosinophils at 7th day
Description: Rats weighing 250°-350 g were used (5 per group). The test method was a partial modification of the method reported by B. A. Spicer et al (Br. J. Pharmacol (1990), 101, 821). Sephadex G-200 having a particle size of 40°-120 micron was suspended in isotonic saline at 0.5 mg/ml and boiled for 5 hours on the administration day to allow swelling. The suspension was administered to the rats from the tail vein by 1 ml at day 0, day 2 and day 5. At the 7th day from the initiation of the administration, the rats were anesthetized with 25% urethane (5 ml/kg) and fixed at a dorsal position. A cut down tube was inserted into trachea and applied with a three-way cock at its end. A 5 ml plastic syringe was set on one end of the three-way cock, a 5 ml plastic syringe containing 6 units/ml heparin-PBS (37° C.) was set on the other end and the liquid was injected. Using the empty 5 ml plastic syringe, the liquid was inserted or sucked out three times. This set of operations were repeated three times and the liquid obtained was preserved on ice as a bronchovesicular washing (ca 12 ml). The obtained washing was centrifuged [1000 rpm (150 g)×5 min, 4° C.] and the supernatant thereof was removed by decantation. The residue was re-suspended in 500 μl of RPMI-1640 medium. The total leukocytes in the suspension was counted by Colter counter (Sysmex, MICROCELLCOUNTER CC-120). Hinkelmann's Solution (900 μl), which is an eosinophil count reagent, was added to 100 μl of the re-suspension for staining (1:9), and the proportion of eosinophil count relative to the leukocyte count in one microscopic field was determined using an optical microscope (NIKON, BIOPHOT Type 104). The drug (test compound) was intraperitoneally administered in a dose of 30 mg/kg 10 minutes prior to the respective administration of Sephadex. The control group was administered with an isotonic saline containing 1% Tween 80 and 1% dimethyl sulfoxide instead of the drug.
Eosinophilia-inhibitory activity was calculated from the following formula.

T lymphocytes = test: Inhibitory action on T lymphocyte activation stimulated by concanavalin A ([3H]thymidine uptake); format: cell-based; settings: mouse thymus T lymphocytes, 3 μg/ml concanavalin A, test drug 10 μM, read-out: growth-inhibitory activity, minus percentage figures relative to the control group (thymidine uptake)
Description: Inhibitory action on T lymphocyte activation stimulated by concanavalin A
The test was performed according to the method of Mishell, B. B. et al ["Cell Proliferation" in Selected Methods in Cellular Immunology, V, XXiX, W. H. Freeman Co., San Francisco, Calif. pp. 153-160, 1980].
T lymphocytes were isolated from mouse thymus by a conventional method and suspended in DMEM. The cells (5×10^6 cells/ml) were incubated at 37° C. for 12 hours in the presence of 3 μg/ml of concanavalin A. The test drug was added at 10 μM under these incubation conditions. After 12 hours of incubation, 2 μCi [3H]thymidine was added to each well and the well was incubated for 48 hours. After the incubation, the thymidine uptake was determined by a scintillation counter. The growth-inhibitory activity is shown in minus percentage figures relative to the figure of the control group.

## CNC(=S)n1nc(-c2ccc(C(F)(F)F)cc2)nc1N [Compound L, 5-amino-1-[methylamino(thiocarbonyl)]-3-(4-trifluoromethylphenyl)-1H-1,2,4-triazole]
eosinophil
  inhibition in vivo at 30 mg/kg: 88%
T lymphocytes
  inhibition at 10 µM: -37%

## CNC(=S)n1nc(-c2ccc(OC)cc2)nc1N [Compound E, 5-amino-3-(4-methoxyphenyl)-1-[methylamino(thiocarbonyl)]-1H-1,2,4-triazole]
eosinophil
  inhibition in vivo at 30 mg/kg: 70%

## CNC(=S)n1nc(-c2ccc(F)cc2)nc1N [Compound J, 5-amino-3-(4-fluorophenyl)-1-[methylamino(thiocarbonyl)]-1H-1,2,4-triazole]
eosinophil
  inhibition in vivo at 30 mg/kg: 80%

## CNC(=S)n1nc(-c2ccc(Cl)cc2Cl)nc1N [Compound N, 5-amino-3-(2,4-dichlorophenyl)-1-[methylamino(thiocarbonyl)]-1H-1,2,4-triazole]
eosinophil
  inhibition in vivo at 30 mg/kg: 90%

## CNC(=S)n1nc(-c2ccc(Cl)cc2)nc1N [Compound D, 5-amino-3-(4-chlorophenyl)-1-[methylamino(thiocarbonyl)]-1H-1,2,4-triazole]
eosinophil
  inhibition in vivo at 30 mg/kg: 87%
T lymphocytes
  inhibition at 10 µM: -52%

## CNC(=S)n1nc(N)nc1N [Compound B, 3,5-diamino-1-[methylamino(thiocarbonyl)]-1H-1,2,4-triazole]
eosinophil
  inhibition in vivo at 30 mg/kg: 53%

## Cn1cnc2nc(-c3ccc(C(F)(F)F)cc3)nn2c1=S [Compound S, 6-methyl-2-(4-trifluoromethylphenyl)-1,2,4-triazolo[1,5-a]-1,3,5-triazine-7(6H)-thione]
eosinophil
  inhibition in vivo at 30 mg/kg: 89%
T lymphocytes
  inhibition at 10 µM: -36%

## Cn1cnc2ncnn2c1=S [Compound F, 6-methyl-1,2,4-triazolo[1,5-a]-1,3,5-triazine-7(6H)-thione]
eosinophil
  inhibition in vivo at 30 mg/kg: 58%

## Cn1cnc2nc(-c3ccc(C#N)cc3)nn2c1=S [Compound G, 2-(4-cyanophenyl)-6-methyl-1,2,4-triazolo[1,5-a]-1,3,5-triazine-7(6H)-thione]
eosinophil
  inhibition in vivo at 30 mg/kg: 79%

## Cn1cnc2nc(-c3ccc(Cl)cc3Cl)nn2c1=S [Compound U, 2-(2,4-dichlorophenyl)-6-methyl-1,2,4-triazolo[1,5-a]-1,3,5-triazine-7(6H)-thione]
eosinophil
  inhibition in vivo at 30 mg/kg: 85%
T lymphocytes
  inhibition at 10 µM: -22%

## CNC(=S)n1nc(-c2ccc(Br)cc2)nc1N [Compound K, 5-amino-3-(4-bromophenyl)-1-[methylamino(thiocarbonyl)]-1H-1,2,4-triazole]
eosinophil
  inhibition in vivo at 30 mg/kg: 90%
T lymphocytes
  inhibition at 10 µM: -35%

## Cn1cnc2nc(-c3ccc(Cl)c(Cl)c3)nn2c1=S [Compound V, 2-(3,4-dichlorophenyl)-6-methyl-1,2,4-triazolo[1,5-a]-1,3,5-triazine-7(6H)-thione]
eosinophil
  inhibition in vivo at 30 mg/kg: 87%
T lymphocytes
  inhibition at 10 µM: -40%

## CNC(=S)n1ncnc1N [Compound A, 5-amino-1-[methylamino(thiocarbonyl)]-1H-1,2,4-triazole]
eosinophil
  inhibition in vivo at 30 mg/kg: 88%

## CNC(=S)n1nc(-c2ccc(Cl)c(Cl)c2)nc1N [Compound O, 5-amino-3-(3,4-dichlorophenyl)-1-[methylamino(thiocarbonyl)]-1H-1,2,4-triazole]
eosinophil
  inhibition in vivo at 30 mg/kg: 88%

## Cn1cnc2nc(-c3ccc(Cl)cc3)nn2c1=S [Compound H, 2-(4-chlorophenyl)-6-methyl-1,2,4-triazolo[1,5-a]-1,3,5-triazine-7(6H)-thione]
eosinophil
  inhibition in vivo at 30 mg/kg: 83%
T lymphocytes
  inhibition at 10 µM: -60%

## Cn1cnc2nc(-c3ccc(F)cc3)nn2c1=S [Compound Q, 2-(4-fluorophenyl)-6-methyl-1,2,4-triazolo[1,5-a]-1,3,5-triazine-7(6H)-thione]
eosinophil
  inhibition in vivo at 30 mg/kg: 82%

## CNC(=S)n1nc(-c2ccc(C#N)cc2)nc1N [Compound C, 5-amino-3-(4-cyanophenyl)-1-[methylamino(thiocarbonyl)]-1H-1,2,4-triazole]
eosinophil
  inhibition in vivo at 30 mg/kg: 87%

## CNC(=S)n1nc(-c2ccc(Cl)cc2OC)nc1N [Compound P, 5-amino-3-(4-chloro-2-methoxyphenyl)-1-[methylamino(thiocarbonyl)]-1H-1,2,4-triazole]
eosinophil
  inhibition in vivo at 30 mg/kg: 85%

## Cn1cnc2nc(-c3ccc(-c4ccccc4)cc3)nn2c1=S [Compound T, 6-methyl-2-(4-phenylphenyl)-1,2,4-triazolo[1,5-a]-1,3,5-triazine-7(6H)-thione]
eosinophil
  inhibition in vivo at 30 mg/kg: 80%

## Cn1cnc2nc(-c3ccc(Br)cc3)nn2c1=S [Compound R, 2-(4-bromophenyl)-6-methyl-1,2,4-triazolo[1,5-a]-1,3,5-triazine-7(6H)-thione]
eosinophil
  inhibition in vivo at 30 mg/kg: 88%
T lymphocytes
  inhibition at 10 µM: -58%

## CNC(=S)n1nc(-c2ccc(-c3ccccc3)cc2)nc1N [Compound M, 5-amino-3-(4-phenylphenyl)-1-[methylamino(thiocarbonyl)]-1H-1,2,4-triazole]
eosinophil
  inhibition in vivo at 30 mg/kg: 85%

## CNC(=S)n1nc(-c2cccc(Cl)c2)nc1N [Compound I, 5-amino-3-(3-chlorophenyl)-1-[methylamino(thiocarbonyl)]-1H-1,2,4-triazole]
eosinophil
  inhibition in vivo at 30 mg/kg: 70%
